Non-standard residues stand in square brackets, D forms with d. Residues, ends and D or L forms follow the SMILES beside them.
Key:
A549 cells = experiment: Propidium iodide cell cycle assay; type: cell-based, human; conditions: peptide 10 micrograms per ml, 24 hours, FACS
Description: Human A549 cells (carcinomic human alveolar basal epithelial cells) were utilized in the experiments employing the Propidium iodide cell cycle assay. The eukaryotic cell cycle is a series of events that take place in a cell leading to its replication. The regulation of the cell cycle involves steps crucial to the cell, including detecting and repairing genetic damage, and provision of various checks to prevent uncontrolled cell division. The molecular events that control the cell cycle are ordered and directional; that is, each process occurs in a sequential fashion. The cell cycle consists of four distinct phases: G1 phase, S phase, G2 phase (collectively known as interphase) and M phase. M phase is itself composed of two tightly coupled processes: mitosis, in which the cell's chromosomes are divided between the two daughter cells, and cytokinesis, in which the cell's cytoplasm divides forming distinct cells. Activation of each phase is dependent on the proper progression and completion of the previous one. Cells that have temporarily or reversibly stopped dividing are said to have entered a state of quiescence called Go phase. The relatively brief M phase consists of nuclear division and cytoplasmic division. The first phase within interphase, from the end of the previous M phase till the beginning of DNA synthesis is called G1 (G indicating gap or growth). During this phase the biosynthetic activities of the cell resume at a high rate. This phase is marked by synthesis of various enzymes that are required in S phase, mainly those needed for DNA replication. The ensuing S phase starts when DNA synthesis commences; when it is complete, all of the chromosomes have been replicated. The cell then enters the G2 phase, which lasts until the cell enters mitosis. Significant protein synthesis occurs during this phase, mainly involving the production of microtubules, which are required during the process of mitosis. […]
Propidium iodide is an intercalating agent and a fluorescent molecule that can be used to stain DNA. […] After incubation for 40 min at 37° C., cells were analyzed in the FACS.

spleen cells = experiment: Th1/Th2 cytokine profiling assay (Ovalbumin restimulated spleen cells, CBA kit); type: cell-based, Balb/c mice; conditions: peptide 10 micrograms per ml; Ovalbumin 10 micrograms/ml restimulation; 72 hours
Description: The Balb/c mice (originated in 1923, it is a popular strain and is used in many different research disciplines. Also classified as an inbred from the production of 20 or more successive brother-sister matings, the Balb/c mouse is albino and small in size) were immunized on Days 1, 15, and 29 with Ovalbumin (Ovalbumin is the main protein found in egg white, commonly used to stimulate an immunological reaction in test animals) in PBS (5 micrograms/injection). On day 50, spleens of the mice were harvested (3 weeks after last boost with Ovalbumin). Cells were cultured (2×10^5/well in triplicate) and incubated with culture medium or test peptide—10 micrograms per ml—for 30 min. Thereafter, additional Ovalbumin was added to the cells at 10 micrograms/ml for in vitro restimulation of the cells. 72 hours later, cell supernatants were harvested and assayed using the Becton Dickinson Mouse Th1/Th2 Cytokine CBA Kit. This kit can be used to measure Interleukin-2 (IL-2), Interleukin-4 (IL-4), Interleukin-5 (IL-5), Interferon-γ (IFN-γ), and Tumor Necrosis Factor-α (TNF-α) protein levels in a single sample. The kit performance has been optimized for analysis of physiologically relevant concentrations ([…] levels) of specific cytokine proteins in tissue culture supernatants and serum samples.

in vitro = conditions: human
RAW 264.7 cells = experiment: Phagocytosis assay (Fluorescein-labeled Escherichia coli, flow cytometry); type: cell-based, mouse; conditions: peptide 10 micrograms per ml, 30 min preincubation, 60 min ingestion
Description: RAW 264.7 (Mouse leukaemic monocyte macrophage cell line) cells were obtained from ATCC and grown in RPMI 1640 medium containing 10% FBS. Cells were incubated in 12×75 mm tubes at 37° C. with test peptide—10 micrograms per ml—for 30 min prior to adding Fluorescein-labeled Escherichia coli bacteria as the agent to be ingested. After the cells were incubated for additional 60 min at 37° C. and allowed to ingest the Fluorescein-labeled Escherichia coli bacteria, cells were fixed with 1% paraformaldehyde. The samples were then analyzed by flow cytometry to determine the amount of phagocytosis as a function of brightness (the greater the phagocytic activity, the more fluorescence in the macrophage population). Data are reported as % positive and the mean fluorescence intensity (MFI) of positively stained cells.

TNF alpha = TNF alpha production assay (LPS-stimulated macrophages, ELISA); type: cell-based, human; conditions: macrophages from PBMC, peptide 10 micrograms per ml, lipopolysaccharide 200 ng/ml, overnight
Description: Human Peripheral Blood Mononuclear Cells (PBMC) were obtained from normal human donors. The macrophages were prepared by adherence of PBMC to the plastic wells of the plates. After 8 days in culture in the presence of recombinant human macrophage-colony stimulating factor at 2 ng/ml, differentiated macrophages were preincubated with test peptide—10 micrograms per ml—for 30 min, followed by in-well stimulation by the addition of lipopolysaccharide at a final concentration of 200 ng/ml. Not stimulated macrophages served as negative background control.
After overnight incubation, supernatants from the control and LPS-stimulated cultures were harvested and assayed for TNF alpha production employing a TNF alpha specific ELISA.

HUVEC = experiment: Endothelial tube formation assay; type: cell-based, human; conditions: peptide 10 micrograms per ml, 20 hours
Description: The endothelial tube formation assay is based on the ability of endothelial cells to form three-dimensional capillary-like tubular structures when cultured on a gel of basement membrane extract. The endothelial tube formation assay represents a powerful model for studying inhibition and induction of angiogenesis. Pre-labeled HUVEC with Calcein AM were seeded in a 96-well culture plate coated with extracellular metrix (Chemicon international Cat. ECM625) and treated with test peptide—10 micrograms per ml—in full growth medium. […] control was vehicle only. The endothelial cells were allowed to form tubes for 20 hours and were then examined under an inverted fluorescent microscope. Duplicate wells for each treatment were photographed and quantitatively analyzed for an average tubule length using image analysis software ImageProPlus. Raw data were expressed as average tubule lengths in pixels ±standard deviation. Statistic p values were computed using the Student's t-test.

HCMV strain AD169 = experiment: HCMV plaque reduction assay in MRC-5 cells; conditions: HCMV in MRC-5 cells; peptide 10 micrograms per ml; 7-10 days

CC(C)C[C@H](NC(=O)[C@H](CC(C)C)NC(=O)[C@@H](Cc1c[nH]c2ccccc12)NC(=O)[C@H](Cc1ccccc1)NC(=O)[C@@H](Cc1c[nH]c2ccccc12)NC(=O)[C@H](CCC(N)=O)NC(=O)[C@H](CCC(N)=O)NC(=O)[C@@H]1CCCN1C(=O)[C@H](CCCCN)NC(=O)[C@@H]1CCCN1C(=O)[C@@H](CCCNC(=N)N)NC(=O)[C@@H]1CCCN1C(=O)CNC(=O)[C@H](CC(C)C)NC(=O)[C@H](CC(C)C)NC(=O)[C@H](Cc1ccc(O)cc1)NC(=O)CNC(=O)[C@H](C)NC(=O)[C@H](CO)NC(=O)[C@H](CC(N)=O)NC(=O)[C@H](CC(C)C)NC(=O)[C@@H](NC(=O)[C@H](Cc1c[nH]c2ccccc12)NC(=O)CN)[C@@H](C)O)C(N)=O [Spantide-I, Gly-Trp-Thr-Leu-Asn-Ser-Ala-Gly-Tyr-Leu-Leu-Gly-Pro-D-Arg-Pro-Lys-Pro-Gln-Gln-D-Trp-Phe-D-Trp-Leu-Leu-NH2] (H-GWTLNSAGYLLGP[dR]PKPQQ[dW]F[dW]LL-NH2)
Cell cycle analysis G0/G1 (A549 cells): 61.6 | Cell cycle analysis G2/M (A549 cells): 7.7 | Cell cycle analysis S (A549 cells): 30.7 | IFNγ spleen cells; TH1 response (% of control) (spleen cells): 43.1 % of control | IL-2 spleen cells (% of control) (spleen cells): 25.9 % of control | IL-4 spleen cells; TH2 response (% of control) (spleen cells): 40.5 % of control | IL-5 spleen cells; TH2 response (% of control) (spleen cells): 64.5 % of control | TNF-a spleen cells; TH1 response (% of control) (spleen cells): 61.9 % of control | viability at 144 h, 10 micrograms per ml (in vitro): 100% | % of control phagocytosis (RAW 264.7 cells): 102.9% | % of LPS induction (TNF alpha): 101.4% | % inhibition of tube formation (HUVEC): 1% | % plaque reduction (HCMV strain AD169): 0.0%
